Reference: the METLIN SMRT retention time set (Domingo-Almenara et al. 2019)

Assay: gradient 5% acetonitrile 3 min, to 50% in 2 min, to 85% in 15 min, held 3 min, 100 µL/min
Conditions: column: Zorbax Extend-C18 2.1 x 50 mm; eluents: water / acetonitrile, 0.1% formic acid
Method in brief: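 Retention times of pure standards were taken from adduct peaks that were selected by computer and manually inspected. Over 3 months, mixtures of ~100 molecules were run by HPLC–quadrupole time-of-flight mass spectrometry in positive and negative ionization mode. The Zorbax Extend-C18 column (2.1 × 50 mm, 1.8 μm) ran at 100 μL/min in water and acetonitrile, each containing 0.1% formic acid, with 40 μL dead volume and 900 μL dwell volume.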

Row | SMILES | RP-LC retention time [s]
1 | O=C(NCCc1nc2cccnc2n1-c1ccccc1)c1ccoc1 | 646
2 | CCn1nc(C)c(CCNC(=O)c2cc3c(=O)n(CCOC)ccc3nc2C)c1C | 576
3 | Cc1cccc(NS(=O)(=O)c2cc3n(c2)CCN(C(C)C)C3=O)c1C | 816
4 | O=C1NC2(CCN(C(=O)c3cc(F)cc(F)c3)CC2)Nc2c(Cl)cccc21 | 760
5 | O=C(CN1C(=O)NC2(CCCCC2)C1=O)Nc1ccc2c(c1)OCCO2 | 708
6 | CC(C)(C)C(=O)Nc1nc2cc3c(cc2s1)OCO3 | 823
7 | O=C(Nc1cccc(Cl)c1)Nc1nccs1 | 870
8 | CCCN1C(=O)C(CC(=O)NCC2CC2)Sc2ncccc21 (stereo unspecified) | 697
9 | O=c1ccn(-c2ccc(Cl)cc2)nc1-c1nc(-c2ccccc2)no1 | 938
10 | COC(=O)c1ccc(Cn2cnc3nc4c(cc3c2=O)CCCC4)cc1 | 767
11 | O=C(C1Cc2ccccc2CN1S(=O)(=O)c1cccs1)N1CCCCCC1 (stereo unspecified) | 932
12 | CC1CCCC(C)N1CCCNC(=O)C1CCCN(c2ncnc3c2nc2n3CCCCC2)C1 (stereo unspecified) | 592
13 | CCn1cc(S(=O)(=O)N2CCCC2c2noc(CO)n2)cn1 (stereo unspecified) | 619
14 | CCOC(=O)C1CCN(c2cc3c(cc2NC(=O)c2ccco2)n(C)c(=O)n3C)CC1 | 904
15 | COc1ccc(Cc2nc(-c3ccc4nnc(C)n4c3)no2)cc1OC | 724
16 | CCCCN(C)C(=O)Cn1c(CNC(=O)c2ccco2)nc2ccccc21 | 629
17 | COc1cc2c(cc1Cc1cccc(Cl)c1F)c(=O)c(C(=O)O)cn2[C@H](CO)C(C)C | 1090
18 | O=C(Nc1ccc(-c2nnc3n2CCCC3)cc1)c1ccn[nH]1 | 595
19 | Cc1ccc(S(=O)(=O)N2CC(c3nc(C)no3)C3(CCOCC3)C2)cc1 (stereo unspecified) | 845
20 | COc1ccc(NC(=O)CN2CCc3[nH]c4c(C)c(Cl)ccc4c(=O)c3C2)cc1Cl | 762
21 | CN1C(=O)c2ccccc2Oc2ccc(C(=O)NCCCc3ccccc3)cc21 | 964
22 | Cn1nc2n(c1=O)CCN(C(=O)c1cc(C3CC3)[nH]n1)CC2 | 575
23 | O=C(CSc1ccc(N2CCCC(C(=O)NC3CC3)C2)nn1)Nc1ccc(F)cc1 (stereo unspecified) | 629

Row | SMILES | RP-LC retention time [s]
24 | O=S(=O)(c1ccccc1)N1CCCC(c2nnnn2-c2ccccc2)C1 (stereo unspecified) | 928
25 | CCOC(=O)Nc1c2ccccc2nc2ccccc12 | 660
26 | CN1C(=O)C(C)(C(=O)Nc2ccccc2)Oc2cccnc21 (stereo unspecified) | 788
27 | CC1CCCCN1CCNC(=O)c1cc(S(=O)(=O)N2CCCC2)ccc1Cl (stereo unspecified) | 617
28 | C=CCn1c(-c2ccc(OC)cc2)nc2nc3ccccc3nc21 | 813
29 | CCOc1ccc(C(=O)N2CCC3(CC2)C(=O)N(CC)c2ccccc23)cc1OCC | 939
30 | Cc1ccc(-c2noc(-c3nc(Cc4cccc(F)c4)no3)n2)cc1 | 1180
31 | COC(=O)C(C)NC(=O)NC1CCN(C2=NS(=O)(=O)C(c3ccccc3)=C2C)CC1 (stereo unspecified) | 718
32 | CC(C)N1C(=O)c2cccnc2Sc2cc(NC(=O)c3ccoc3)ccc21 | 773
33 | O=C(NCc1ccc(-n2ccnc2)cc1)c1ccc(F)c(F)c1 | 625
34 | COCCn1cc2c3c(cccc31)CN(C(=O)c1ccc(Br)o1)CC2 | 976
35 | O=C(NCc1ccccc1)c1cn(-c2ccc(-c3nc(C4CC4)no3)cn2)cn1 | 915
36 | CCn1ccc(C(=O)N2CCCn3nc(-c4ccc(OC)cc4)cc3C2)n1 | 756
37 | CC(C)c1nnc(-c2cccnc2N2CCN(C(=O)C3CCCO3)CC2)o1 (stereo unspecified) | 675
38 | CCNC(=O)N1CC=C(C(=O)Nc2ccc(C)cc2)CC1 | 798
39 | O=C(NCc1ccccc1)c1ccc2ccnc(N3CCN(C(=O)c4ccco4)CC3)c2c1 | 673
40 | O=C(Nc1ccc(F)cc1F)Nc1c(-c2ccc(F)cc2)nc2ccccn12 | 677
41 | O=C(C1CCN(S(=O)(=O)N2CCOCC2)CC1)N1CCC(c2nc(C3CCOCC3)no2)CC1 | 674
42 | COc1ccc2ncc(C(=O)c3ccc(C)cc3)c(N3CCN(C)CC3)c2c1 | 582
43 | COc1ccc(N2C=C(C(=O)N3CCCC3)S(=O)(=O)c3ccc(F)cc32)cc1OC | 758
44 | CCOc1ccc(-c2noc(Cn3nc(-c4ccc(C)cc4)ccc3=O)n2)cc1 | 1160
45 | O=C(c1ccc2c(=O)n(-c3ccccc3)c(N3CCCC3)nc2c1)N1CCN(c2ccccn2)CC1 | 617
46 | Cc1[nH]c(C(=O)N2CCCC(C(=O)NCCCN3CCOCC3)C2)c(C)c1C(=O)OC(C)C (stereo unspecified) | 608

Row | SMILES | RP-LC retention time [s]
47 | Cc1ccsc1C(=O)NCCn1c(C)cnc1C1CCC1 | 596
48 | CC(C)NC(=O)N(C1CCOCC1)C1CN(C(=O)c2ccnn2C)C1 | 576
49 | O=C(CN1C(=O)CCS(=O)(=O)c2ccccc21)Nc1ccc(Br)cc1 | 774
50 | COc1cccc(-c2nnc(Cc3nc(-c4ccc(C)c(C)c4)no3)o2)c1 | 1120
51 | Cc1ccc(CNS(=O)(=O)c2ccc(-c3c(C)noc3C)cc2)o1 | 893
52 | Cc1cc(C(=O)N2CCCCC2)c2c(=O)n(CC(=O)c3c(C)n(C)c4ccccc34)c(=O)n(C)c2n1 | 934
53 | Cc1nc(-n2cccc2)sc1C(=O)N1CCN(C(=O)c2ccco2)CC1 | 713
54 | COc1ccc(NCc2nnc3n2CCCCC3)cc1OC | 559
55 | CC1CCN(CCNS(=O)(=O)c2ccccc2-c2nc(-c3ccc(F)cc3)no2)CC1 | 752
56 | Cc1ccc(CNC(=O)CCc2c(C)nn(-c3cc(N4CCOCC4)ncn3)c2C)o1 | 700
57 | CN(CC1CCOC1)C(=O)c1cccc(Cl)c1 (stereo unspecified) | 672
58 | Cc1csc(-c2ccc(N3CCN(C(=O)c4ccoc4)CC3)nc2)n1 | 716
59 | COc1cc(OC)cc(-c2cc3cnc(N)nc3nc2NC(=O)NC(C)(C)C)c1 | 814
60 | Cc1ccc(S(=O)(=O)NC(=O)NN2CCCCCC2)cc1 | 914
61 | CCCNC(=O)N1CC(Oc2ccc(-c3nc(-c4ccccc4)no3)cc2)C1 | 861
62 | O=C(CC1CCCCC1)NC1CCN(c2cc(-c3cccnc3)[nH]n2)CC1 | 633
63 | O=C(c1nc(Cn2cnc3ccccc3c2=O)no1)N1CCN(Cc2ccc3c(c2)OCO3)CC1 | 691
64 | Cc1cccc(S(=O)(=O)N2CCCN(c3ccc(=O)n(-c4ccccc4)n3)CC2)c1 | 866
65 | CCc1cc(=O)n(CC(=O)Nc2ccc(F)cc2F)c(N2CCOCC2)n1 | 743
66 | O=S(=O)(Cc1c(F)cccc1Cl)N1CCc2nc(-c3ccc(F)cc3)ncc2C1 | 1130
67 | CC(=O)Nc1ccc(OC(=O)Oc2ccc(NC(C)=O)cc2)cc1 | 724
68 | CCC(CC)NC(=O)C1CCCCc2nnc(C(C)C)n21 (stereo unspecified) | 664
69 | CC(=O)N1CCc2cc(N3CC(C(=O)NCc4ccccc4F)CC3=O)ccc21 (stereo unspecified) | 763

Row | SMILES | RP-LC retention time [s]
70 | Cc1nc(-c2ccncc2)nc2c1CCC(=O)N2CC1CCCCC1 | 918
71 | O=S(=O)(c1cccnc1)N1CCC(c2ccccc2)C1 (stereo unspecified) | 773
72 | CN(C)c1cccc(C(=O)Nc2cccc(-c3nnc4n3CCCC4)c2)c1 | 594
73 | CNC(=O)CSc1nnc(N2CCN(C(=O)c3cc(=O)c4ccccc4o3)CC2)s1 | 599
74 | COc1ccc(-c2ncc3c(n2)CCN(C(=O)Nc2cccc(Br)c2)C3)cc1 | 1010
75 | CS(=O)(=O)CCC(C(=O)N1CCN(c2ccccn2)CC1)N1Cc2ccccc2C1=O (stereo unspecified) | 917
76 | Cc1sc(-c2cc(C(F)(F)F)[nH]n2)cc1S(=O)(=O)N1CCN(C2CCCCC2)CC1 | 726
77 | CCCCOc1ccc(C(=O)NCc2ccco2)cc1 | 865
78 | Cc1cc(C)c(S(=O)(=O)N2CCN(Cc3cccc(F)c3)C3(CCOCC3)C2)c(C)c1 | 973
79 | c1ccc2sc(C3(NCC4CC4)CCCCC3)cc2c1 | 799
80 | CN(C)c1ccc(-c2nc(-c3cn(Cc4ccc(F)cc4)nn3)no2)cc1 | 1010
81 | CCOc1ccccc1CN1CCc2nc(N3CCN(c4ccccn4)CC3)ncc2C1 | 583
82 | Cc1cc(C(=O)N2CCN(CCNC(=O)c3ccsc3)CC2)c(C)o1 | 554
83 | O=C(C1CCCN(c2ncnc3c2nc2n3CCCCC2)C1)N1CCN(c2ccc(Cl)cc2)CC1 (stereo unspecified) | 928
84 | O=C(NC1CCc2nnc(C3CC3)n2CC1)c1cccs1 (stereo unspecified) | 589
85 | Cc1ccc(N2CCC(NC(=O)Nc3cccc(Br)c3)C2=O)cc1 (stereo unspecified) | 955
86 | Cc1nn(C(C)C(=O)NCc2ccco2)c(=O)c2nn(-c3ccccc3)c(C)c12 (stereo unspecified) | 761
87 | O=C(NCc1ccccc1)C1Oc2ccccc2NC1=O (stereo unspecified) | 701
88 | COc1ccccc1-c1noc(C2CCCN2C(=O)Nc2ccc3c(c2)OCCO3)n1 (stereo unspecified) | 762
89 | Cc1ccc(NC(=O)c2cc(C(C)C)n3nccc3n2)cc1 | 1140
90 | CCN1C(=O)SC(CC(=O)O)C1=O (stereo unspecified) | 948
91 | COc1ccc(N2CC(c3nc(-c4ccc(C)cc4)no3)CC2=O)c(OC)c1 (stereo unspecified) | 888
